According to patent US20180296530A1, “METHOD FOR TREATING ATOPIC DERMATITIS” (priority 2015, published 2018):

Columns and labels:
[1] = test system: Patients aged 1 to 18 years with physician-diagnosed AD and sleep problems; experiment: Clinical trial: sleep evaluated by actigraphy; assay type: in vivo, human
Experimental: Patients aged 1 to 18 years with physician-diagnosed AD involving at least 5% of the total body surface area were recruited from the pediatric and dermatology outpatient departments of the National Taiwan University Hospital from Aug. 1, 2012, through Jan. 31, 2013. Follow-up was completed on Apr. 13, 2013. Those patients with sleep problems occurring more than 3 days per week during the previous 3 months were eligible. […] They were then randomized to receive oral melatonin, 3 mg/d (General Nutrition Corporation), or placebo (Standard Chem & Pharm Co, Ltd) at bedtime for 4 weeks. After a 2-week washout period, participants crossed to the alternate treatment. Sleep was evaluated by actigraphy (Mini-Mitter Actiwatch; Philips-Respironics). Each participant wore the actigraphic device on the nondominant wrist for 3 consecutive nights starting 3 nights before each treatment period and for the last 3 nights of each treatment period. In a subgroup of patients who offered consent, polysomnography was performed on the night before the first day and on the last night of each treatment period.

[2] = test system: Patients aged 1 to 18 years with physician-diagnosed AD; experiment: Clinical trial: polysomnography in a subgroup; assay type: in vivo, human; conditions: melatonin vs placebo, P>0.05
Experimental: Sleep was evaluated by actigraphy (Mini-Mitter Actiwatch; Philips-Respironics). Each participant wore the actigraphic device on the nondominant wrist for 3 consecutive nights starting 3 nights before each treatment period and for the last 3 nights of each treatment period. In a subgroup of patients who offered consent, polysomnography was performed on the night before the first day and on the last night of each treatment period.

IL-4 = experiment: Example 5: dorsal skin IL-4 mRNA by RT-PCR; assay type: in vivo, Balb/c mice
Experimental: (§1) The protocol for establishing an AD mouse model in this Example was modified from those described previously. Briefly, referring to FIG. 4, DNCB-induced AD mouse model was prepared by the repeated applications of 20 μL of 1% DNCB in acetone/olive oil (4:1) to the outer and inner surfaces of mouse ears and 100 μL of the same solution to the shaved back skin once on days 1, 2, and 3. Mice of Control group were treated with the identical volumes of vehicle.
The DNCB-sensitized mice were randomly assigned to one of three groups: DNCB (Positive control), DNCB+3% topical melatonin (Treatment: low-dose), DNCB+5% topical melatonin (Treatment: high-dose). Each group (including Control group) consisted of 5 mice. From days 9 to 19, sensitized mice were challenged by applying 0.5% DNCB to the skin surfaces. For the two groups treated with topical melatonin groups, 0.3 mg of topical melatonin ointment (3% or 5% melatonin in Vaseline) was given together with DNCB during the challenge period. […]
Blood and dorsal skin of each mouse were collected on the last day of the experiment (Day 20) and stored at −80° C. until use. Serum IgE levels were measured using the ImmunoCAP fluorescence enzyme immunoassay (Phadia AB, Sweden) according to the manufacturer's instructions. The dorsal skin mRNA expression of the cytokines IL-4, IL-13, and IL-17 were measured by RT-PCR.

[3] = test system: DNCB-induced AD mouse model; experiment: Example 5: histological examination of skin (H&E, toluidine blue, anti-CD3); assay type: in vivo, Balb/c mice; conditions: for Cumulative histological scores: positive control 14.8 ± 2.4; for Hyperplasia, epidermis and follicular epithelium, slight to moderate/severe: incidence / Hyperplasia, sebaceous gland and hair follicle, dermis and subcutis, slight to moderate: incidence / Inflammation, neutrophil, lymphocyte and mast cell, epidermis, dermis and subcutis, minimal to severe/high: incidence / Infundibular hyperkeratosis, hair follicle, dermis, minimal to slight: incidence / Necrosis, epidermis, slight: incidence / Pustule, epidermis, slight: incidence / Serocellular crust/parakeratosis, epidermis, slight: incidence / Vacuolization, epidermis, minimal to slight: incidence: skin, Day 20, 5 mice
Experimental: as §1
The DNCB-sensitized mice were randomly assigned to one of three groups: DNCB (Positive control), DNCB+3% topical melatonin (Treatment: low-dose), DNCB+5% topical melatonin (Treatment: high-dose). Each group (including Control group) consisted of 5 mice. From days 9 to 19, sensitized mice were challenged by applying 0.5% DNCB to the skin surfaces. For the two groups treated with topical melatonin groups, 0.3 mg of topical melatonin ointment (3% or 5% melatonin in Vaseline) was given together with DNCB during the challenge period. For DNCB group, 0.3 mg of Vaseline was given together with DNCB during the challenge period. For Control group, 0.3 mg of Vaseline was given from days 9 to 19. This experiment was ended at Day 20.
At the end of the experiment (Day 20), all the experimental animals were subjected to euthanization by carbon dioxide and the skin samples were collected for subsequent immunological and histological examinations. The skin of each mouse were fixed with 10% neutral-buffered formalin, and embedded in paraffin. Then, 4-μm-thick sections were cut and transferred onto slides. Deparaffinized skin sections were stained with hematoxylin and eosin (H&E) before they were examined at 200× magnification for evaluation of edema and polymorphonuclear leukocytes (PMN) number. To detect mast cell infiltration, deparaffinized skin sections were stained with toluidine blue. Polyclonal rabbit antibody against CD3 was used to stain T cells. The numbers of mast cells and T cells per 10 high power fields (HPF) were counted.
Further, degree of histopathological lesions of skin from each mouse was graded from one to five depending on severity: 1=minimal (<1%); 2=slight (1-25%); 3=moderate (26-50%); 4=moderate/severe (51-75%); and 5=severe/high (76-100%).

[4] = after oral melatonin 3 mg/d at bedtime for 4 weeks, mean, actigraphy
[5] = after vs before oral melatonin 3 mg/d, 4 weeks, mean
[6] = melatonin phase, before treatment, mean, actigraphy
[7] = melatonin vs placebo, adjusted for age and sex
[8] = Treatment (high-dose): DNCB+5% topical melatonin, mean±SD, graded one to five
[9] = Treatment (high-dose): DNCB+5% topical melatonin
[10] = Treatment (low-dose): DNCB+3% topical melatonin, mean±SD, graded one to five
[11] = Treatment (low-dose): DNCB+3% topical melatonin

## COc1ccc2[nH]cc(CCNC(C)=O)c2c1 [Melatonin, melatonin]
[1]; FIG. 2D, almost unchanged in placebo treatment
  sleep-onset latency, Wilcoxon signed rank test: decreased the sleep-onset latency significantly
[1]; after melatonin treatment, 17 of 37 (placebo 13 of 38 [34%])
  patients who believed that their sleep had improved: 46%
[1]; after oral melatonin 3 mg/d at bedtime for 4 weeks, mean
  Fragmentation index, After: 13.6
[1]; [4]
  Mobility in sleep, After: 9.7%
  Sleep efficiency, After: 76.7%
  Sleep-onset latency, After: 21.6 min
  Total sleep time, After: 390.1 min/night
  WASO (wake after sleep onset), After: 74.5 min
  Wake in sleep interval, After: 15.6%
[1]; [5]
  Fragmentation index, Difference: −2.4
  Mobility in sleep, Difference: −2.0%
  Sleep efficiency, Difference: 2.4%
  Sleep-onset latency, Difference: -23.4 min
  Total sleep time, Difference: 10.0 min/night
  WASO (wake after sleep onset), Difference: -9.0 min
  Wake in sleep interval, Difference: −2.1%
[1]; between the melatonin and placebo phases
  effect on the other sleep variables measured by actigraphy: did not differ significantly
[1]; linear mixed-effects model, adjusted for age and sex
  decrease of the sleep-onset latency more than placebo: 21.4 min
[1]; melatonin group, first treatment period, after oral 3 mg/d for 4 weeks, actigraphy
  sleep-onset latency, first treatment period, after: 24.4 min
[1]; melatonin group, first treatment period, before treatment, actigraphy
  sleep-onset latency, first treatment period, before: 42.8 min
[1]; melatonin group, second treatment period, after oral 3 mg/d for 4 weeks, actigraphy
  sleep-onset latency, second treatment period, after: 19.1 min
[1]; melatonin group, second treatment period, before treatment, actigraphy
  sleep-onset latency, second treatment period, before: 46.7 min
[1]; [6]
  Mobility in sleep, Before: 11.6%
  Sleep efficiency, Before: 74.4%
  Sleep-onset latency, Before: 44.9 min
  Total sleep time, Before: 380.1 min/night
  WASO (wake after sleep onset), Before: 83.6 min
  Wake in sleep interval, Before: 17.6%
[1]; melatonin phase, before treatment, mean, greater scores indicate more fragmented sleep
  Fragmentation index, Before: 16.0
[1]; melatonin treatment compared to placebo, FIG. 3
  effect on sleep efficiency, wake time during sleep, or sleep fragmentation: no significant effect
[1]; [7]
  Fragmentation index, Difference of Treatment Effect From the Linear Mixed-Effects Model, Mean: −3.2
  Mobility in sleep, Difference of Treatment Effect From the Linear Mixed-Effects Model, Mean: −2.9%
  Sleep efficiency, Difference of Treatment Effect From the Linear Mixed-Effects Model, Mean: 2.2%
  Sleep-onset latency, Difference of Treatment Effect From the Linear Mixed-Effects Model, Mean: -21.4 min
  Total sleep time, Difference of Treatment Effect From the Linear Mixed-Effects Model, Mean: 24.8 min/night
  WASO, Difference of Treatment Effect From the Linear Mixed-Effects Model, Mean: -8.2 min
  Wake in sleep interval, Difference of Treatment Effect From the Linear Mixed-Effects Model, Mean: −2.3%
[1]; oral melatonin treatment
  shortening of sleep-onset latency, mean: 23.4 min
  shortening of sleep-onset latency, mean percent: 52.1%
[2]
  effect on the stages of sleep and limb movement: did not have a significantly different effect
IL-4; 5% melatonin treatment compared with 3% melatonin treatment
  skin mRNA expression of IL-4, dose-response: decreased more
IL-4; after topical melatonin treatment (3% or 5%), FIG. 11A
  skin mRNA expression of IL-4: decreased
[3]; 3% melatonin, p=0.04
  pathology scoring vs DNCB group: significant improvement
[3]; 3% topical melatonin compared with DNCB group, p=0.03
  number of anti-CD3 positive cells per 10 HPF: significantly reduced
[3]; 5% melatonin, p=0.02
  pathology scoring vs DNCB group: significant improvement
[3]; 5% topical melatonin compared with DNCB group, p=0.0007
  number of anti-CD3 positive cells per 10 HPF: significantly reduced
[3]; [8]
  Hyperplasia, epidermis and follicular epithelium, slight to moderate/severe: lesion score: 2.0 ± 0.0
  Hyperplasia, sebaceous gland and hair follicle, dermis and subcutis, slight to moderate: lesion score: 2.4 ± 0.5
  Inflammation, neutrophil, lymphocyte and mast cell, epidermis, dermis and subcutis, minimal to severe/high: lesion score: 3.8 ± 0.4
  Necrosis, epidermis, slight: lesion score: 0.4 ± 0.9
  Serocellular crust/parakeratosis, epidermis, slight: lesion score: 2.0 ± 0.0
  Vacuolization, epidermis, minimal to slight: lesion score: 0.8 ± 0.4
[3]; Treatment (high-dose): DNCB+5% topical melatonin, mean±SD
  Cumulative histological scores: 11.4 ± 1.1
[3]; [9]
  Hyperplasia, epidermis and follicular epithelium, slight to moderate/severe: incidence: 5/5
  Hyperplasia, sebaceous gland and hair follicle, dermis and subcutis, slight to moderate: incidence: 5/5
  Inflammation, neutrophil, lymphocyte and mast cell, epidermis, dermis and subcutis, minimal to severe/high: incidence: 5/5
  Infundibular hyperkeratosis, hair follicle, dermis, minimal to slight: incidence: 0
  Necrosis, epidermis, slight: incidence: 1/5
  Pustule, epidermis, slight: incidence: 0
  Serocellular crust/parakeratosis, epidermis, slight: incidence: 5/5
  Vacuolization, epidermis, minimal to slight: incidence: 4/5
[3]; [10]
  Hyperplasia, epidermis and follicular epithelium, slight to moderate/severe: lesion score: 2.4 ± 0.5
  Hyperplasia, sebaceous gland and hair follicle, dermis and subcutis, slight to moderate: lesion score: 2.0 ± 0.0
  Inflammation, neutrophil, lymphocyte and mast cell, epidermis, dermis and subcutis, minimal to severe/high: lesion score: 3.8 ± 0.4
  Infundibular hyperkeratosis, hair follicle, dermis, minimal to slight: lesion score: 0.8 ± 0.8
  Serocellular crust/parakeratosis, epidermis, slight: lesion score: 2.0 ± 0.0
  Vacuolization, epidermis, minimal to slight: lesion score: 0.6 ± 0.5
[3]; Treatment (low-dose): DNCB+3% topical melatonin, mean±SD
  Cumulative histological scores: 11.6 ± 1.8
[3]; [11]
  Hyperplasia, epidermis and follicular epithelium, slight to moderate/severe: incidence: 5/5
  Hyperplasia, sebaceous gland and hair follicle, dermis and subcutis, slight to moderate: incidence: 5/5
  Inflammation, neutrophil, lymphocyte and mast cell, epidermis, dermis and subcutis, minimal to severe/high: incidence: 5/5
  Infundibular hyperkeratosis, hair follicle, dermis, minimal to slight: incidence: 3/5
  Necrosis, epidermis, slight: incidence: 0
  Pustule, epidermis, slight: incidence: 0
  Serocellular crust/parakeratosis, epidermis, slight: incidence: 5/5
  Vacuolization, epidermis, minimal to slight: incidence: 3/5
[3]; after melatonin treatment, FIG. 8
  mast cell infiltration (toluidine blue): decreased
[3]; both the 3% and 5% melatonin treatment group, FIG. 6
  H&E staining of the skin: improved epidermal hyperplasia and less infiltration of lymphocytes
